Laboratory results from patent US20250235543A1, “MODIFIED PROTEINS AND PROTEIN DEGRADERS” (Cullgen (Shanghai), Inc., priority 2021, published 2025).
Where two headings read alike, the source gives them in different places.

Assays:
[1] = target: T1, CDK4 (Homo sapiens, UniProt P11802); experiment: CDK4 percentage degradation in Calu-1 cells (immunoblotting); type: cell-based; details: for inhibition at 0.2 µM: read-out: CDK4 Degradation (200 nM); for inhibition at 10 µM: read-out: CDK4 Degradation (10 μM)
T1 construct: endogenous in cells; host or cells: Calu-1
Summary of the method: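 CDK4 degradation was measured by immunoblotting. Cells were washed in cold PBS and lysed in RIPA buffer with inhibitors for 30 min at 4° C., then spun at 13,000 rpm to clear. After BCA protein determination, lysates were heated at 99° C. for 5 min in Laemmli buffer, resolved on SDS-PAGE, imaged on a ChemiDoc MP with ECL substrate, and band intensities quantified.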

[2] = test system: cyclin D1; experiment: Cyclin D1 percentage degradation in Calu-1 cells (immunoblotting); type: cell-based; details: 16 hours
Summary of the method: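 Cyclin D1 degradation was assessed by western blot. Clarified lysates, obtained by RIPA lysis with inhibitors and centrifugation at 13,000 rpm, were normalized by BCA protein assay and separated by SDS-PAGE. Bands were detected with Western ECL Substrate on a Bio-Rad ChemiDoc MP Imaging system and quantified in Image Lab software to derive percentage degradation.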

T1 sequence (P11802 2-303 limits assumed): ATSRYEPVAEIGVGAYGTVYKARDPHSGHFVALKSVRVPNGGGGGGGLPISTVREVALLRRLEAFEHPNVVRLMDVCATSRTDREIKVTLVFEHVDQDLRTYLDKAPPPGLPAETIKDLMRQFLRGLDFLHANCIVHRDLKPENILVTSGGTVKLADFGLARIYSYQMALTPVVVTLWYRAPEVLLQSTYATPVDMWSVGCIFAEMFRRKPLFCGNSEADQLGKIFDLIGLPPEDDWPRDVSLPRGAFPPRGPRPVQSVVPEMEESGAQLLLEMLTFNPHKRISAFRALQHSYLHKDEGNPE
T1 sequence (P24385 whole entry partner): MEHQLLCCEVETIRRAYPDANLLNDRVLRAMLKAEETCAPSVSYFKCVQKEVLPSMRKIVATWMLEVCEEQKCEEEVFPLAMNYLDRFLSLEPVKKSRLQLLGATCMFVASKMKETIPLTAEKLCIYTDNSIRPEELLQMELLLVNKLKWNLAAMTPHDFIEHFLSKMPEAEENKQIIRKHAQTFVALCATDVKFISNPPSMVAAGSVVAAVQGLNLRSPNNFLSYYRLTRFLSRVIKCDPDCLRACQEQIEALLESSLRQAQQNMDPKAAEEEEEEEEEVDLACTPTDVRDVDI
T1 sequence (Q16531 2-1140 limits assumed, further chain): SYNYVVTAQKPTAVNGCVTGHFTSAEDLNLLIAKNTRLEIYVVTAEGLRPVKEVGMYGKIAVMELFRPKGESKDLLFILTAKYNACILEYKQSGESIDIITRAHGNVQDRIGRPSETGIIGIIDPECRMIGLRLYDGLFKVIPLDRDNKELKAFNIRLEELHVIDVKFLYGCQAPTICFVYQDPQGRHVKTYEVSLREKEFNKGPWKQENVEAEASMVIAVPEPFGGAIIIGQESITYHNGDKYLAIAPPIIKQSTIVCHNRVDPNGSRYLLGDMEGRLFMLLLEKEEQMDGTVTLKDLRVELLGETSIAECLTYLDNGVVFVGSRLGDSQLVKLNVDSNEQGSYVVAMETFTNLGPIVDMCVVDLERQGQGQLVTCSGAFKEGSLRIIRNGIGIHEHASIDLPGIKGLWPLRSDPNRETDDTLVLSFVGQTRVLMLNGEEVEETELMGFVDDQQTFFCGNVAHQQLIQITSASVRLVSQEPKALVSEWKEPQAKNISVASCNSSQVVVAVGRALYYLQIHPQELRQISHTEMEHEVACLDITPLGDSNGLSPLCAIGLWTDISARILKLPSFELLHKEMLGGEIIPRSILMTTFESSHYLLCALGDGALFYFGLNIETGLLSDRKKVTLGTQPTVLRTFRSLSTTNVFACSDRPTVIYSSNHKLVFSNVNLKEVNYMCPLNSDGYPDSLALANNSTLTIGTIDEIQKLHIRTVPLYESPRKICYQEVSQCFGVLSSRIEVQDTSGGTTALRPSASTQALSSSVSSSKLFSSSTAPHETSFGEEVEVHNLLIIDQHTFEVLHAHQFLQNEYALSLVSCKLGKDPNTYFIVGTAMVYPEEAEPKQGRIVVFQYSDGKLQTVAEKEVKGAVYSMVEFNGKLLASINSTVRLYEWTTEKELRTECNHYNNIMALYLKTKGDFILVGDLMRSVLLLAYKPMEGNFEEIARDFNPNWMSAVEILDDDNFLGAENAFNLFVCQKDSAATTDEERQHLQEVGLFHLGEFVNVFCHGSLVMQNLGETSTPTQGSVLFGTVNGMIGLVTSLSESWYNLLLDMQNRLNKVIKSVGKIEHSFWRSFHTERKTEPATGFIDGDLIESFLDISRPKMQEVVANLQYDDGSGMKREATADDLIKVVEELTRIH

Row | inhibition at 0.2 µM ([1]; Calu-1 cells, 200 nM, 16 hours) [%] | inhibition at 10 µM ([1]; Calu-1 cells, 16 hours) [%] | SMILES | CyclinD1 Degradation (200 nM) [2] | CyclinD1 Degradation (10 μM) [2] | inhibition at 0.2 µM ([1]; Calu-1, 16 h) [%]
1 | 50 to 80 |  | CC(=O)c1c(C)c2cnc(Nc3ccc(N4CCN(CC(=O)NCCOCCOCCC(=O)Nc5ccccc5C(=O)Nc5cc[nH]n5)CC4)cn3)nc2n(C2CCCC2)c1=O [CPD-073, 2-(3-(2-(2-(2-(4-(6-((6-Acetyl-8-cyclopentyl-5-methyl-7-oxo-7,8-dihydropyrido[2,3-d]pyrimidin-2-yl)amino)pyridin-3-yl)piperazin-1-yl)acetamido)ethoxy)ethoxy)propanamido)-N-(1H-pyrazol-3-yl)benzamide] | D (protein percentage degradation <30%) |  | 
2 |  | < 30 | Cc1nc(NC(=O)c2ccccc2NC(=O)CCCCCNC(=O)CN2CCN(c3ccc(Nc4ncc(F)c(-c5cc(F)c6nc(C)n(C(C)C)c6c5)n4)nc3)CC2)sc1C [CPD-304, N-(4,5-Dimethylthiazol-2-yl)-2-(6-(2-(4-(6-((5-fluoro-4-(4-fluoro-1-isopropyl-2-methyl-1H-benzo[d]imidazol-6-yl)pyrimidin-2-yl)amino)pyridin-3-yl)piperazin-1-yl)acetamido)hexanamido)benzamide] |  | D (protein percentage degradation < 30%) | 
3 |  | < 30 | Cc1nc(NC(=O)c2ccccc2NC(=O)CCCCCCCNC(=O)CN2CCN(Cc3ccc(Nc4ncc(F)c(-c5cc(F)c6nc(C)n(C(C)C)c6c5)n4)nc3)CC2)sc1C [CPD-278, N-(4,5-Dimethylthiazol-2-yl)-2-(8-(2-(4-((6-((5-fluoro-4-(4-fluoro-1-isopropyl-2-methyl-1H-benzo[d]imidazol-6-yl)pyrimidin-2-yl)amino)pyridin-3-yl)methyl)piperazin-1-yl)acetamido)octanamido)benzamide] |  | D (protein percentage degradation < 30%) | 
4 |  |  | CC(=O)c1c(C)c2cnc(Nc3ccc(N4CCN(C(=O)CCCNc5ccc(C)c(C(=O)Nc6nc(C)c(C)s6)c5)CC4)cn3)nc2n(C2CCCC2)c1=O [CPD-165, 5-((4-(4-(6-((6-Acetyl-8-cyclopentyl-5-methyl-7-oxo-7,8-dihydropyrido[2,3-d]pyrimidin-2-yl)amino)pyridin-3-yl)piperazin-1-yl)-4-oxobutyl)amino)-N-(4,5-dimethylthiazol-2-yl)-2-methylbenzamide] | D (protein percentage degradation <30%) |  | < 30
5 | 50 to 80 |  | CC(=O)c1c(C)c2cnc(Nc3ccc(N4CCN(CC(=O)NCCOCCOCCOCCOCCOCCNc5ccc(C)c(C(=O)Nc6nc(C)c(C)s6)c5)CC4)cn3)nc2n(C2CCCC2)c1=O [CPD-097, 5-((1-(4-(6-((6-Acetyl-8-cyclopentyl-5-methyl-7-oxo-7,8-dihydropyrido[2,3-d]pyrimidin-2-yl)amino)pyridin-3-yl)piperazin-1-yl)-2-oxo-6,9,12,15,18-pentaoxa-3-azaicosan-20-yl)amino)-N-(4,5-dimethylthiazol-2-yl)-2-methylbenzamide] | A (protein percentage degradation >=80%) |  | 
6 | 50 to 80 |  | CC(=O)c1c(C)c2cnc(Nc3ccc(N4CCN(CC(=O)NCCOCCOCCC(=O)Nc5ccccc5C(=O)Nc5ccccn5)CC4)cn3)nc2n(C2CCCC2)c1=O [CPD-053, 2-(3-(2-(2-(2-(4-(6-((6-Acetyl-8-cyclopentyl-5-methyl-7-oxo-7,8-dihydropyrido[2,3-d]pyrimidin-2-yl)amino)pyridin-3-yl)piperazin-1-yl)acetamido)ethoxy)ethoxy)propanamido)-N-(pyridin-2-yl)benzamide] | B (protein percentage degradation <80%, and >=50%) |  | 
7 | < 30 |  | CC(=O)c1c(C)c2cnc(Nc3ccc(N4CCN(CC(=O)NCCOCCOCCOCCOCCOCCNC(=O)CNc5ccc(C(=O)Nc6ncc(C)s6)c(C)c5)CC4)cn3)nc2n(C2CCCC2)c1=O [CPD-014, 4-((23-(4-(6-((6-Acetyl-8-cyclopentyl-5-methyl-7-oxo-7,8-dihydropyrido[2,3-d]pyrimidin-2-yl)amino)pyridin-3-yl)piperazin-1-yl)-2,22-dioxo-6,9,12,15,18-pentaoxa-3,21-diazatricosyl)amino)-2-methyl-N-(5-methylthiazol-2-yl)benzamide] | D (protein percentage degradation <30%) |  | 
8 | > 80 |  | CC(=O)c1c(C)c2cnc(Nc3ccc(N4CCN(CC(=O)NCCOCCOCCC(=O)Nc5ccccc5C(=O)Nc5ccc(Cl)cn5)CC4)cn3)nc2n(C2CCCC2)c1=O [CPD-082, 2-(3-(2-(2-(2-(4-(6-((6-Acetyl-8-cyclopentyl-5-methyl-7-oxo-7,8-dihydropyrido[2,3-d]pyrimidin-2-yl)amino)pyridin-3-yl)piperazin-1-yl)acetamido)ethoxy)ethoxy)propanamido)-N-(5-chloropyridin-2-yl)benzamide] | A (protein percentage degradation >=80%) |  | 
9 | > 80 |  | CC(=O)c1c(C)c2cnc(Nc3ccc(N4CCN(CC(=O)NCCOCCOCCC(=O)Nc5ccccc5C(=O)Nc5nc(C(C)C)c(C)s5)CC4)cn3)nc2n(C2CCCC2)c1=O [CPD-070, 2-(3-(2-(2-(2-(4-(6-((6-Acetyl-8-cyclopentyl-5-methyl-7-oxo-7,8-dihydropyrido[2,3-d]pyrimidin-2-yl)amino)pyridin-3-yl)piperazin-1-yl)acetamido)ethoxy)ethoxy)propanamido)-N-(4-isopropyl-5-methylthiazol-2-yl)benzamide] | A (protein percentage degradation >=80%) |  | 
10 | > 80 |  | CC(=O)c1c(C)c2cnc(Nc3ccc(N4CCN(CC(=O)NCCOCCOCCOCCOCCOCCNc5cccc(C(=O)Nc6nc(C)c(C)s6)c5C)CC4)cn3)nc2n(C2CCCC2)c1=O [CPD-107, 3-((1-(4-(6-((6-Acetyl-8-cyclopentyl-5-methyl-7-oxo-7,8-dihydropyrido[2,3-d]pyrimidin-2-yl)amino)pyridin-3-yl)piperazin-1-yl)-2-oxo-6,9,12,15,18-pentaoxa-3-azaicosan-20-yl)amino)-N-(4,5-dimethylthiazol-2-yl)-2-methylbenzamide] | A (protein percentage degradation >=80%) |  | 
11 | < 30 |  | CC(=O)c1c(C)c2cnc(Nc3ccc(N4CCN(CC(=O)NCCOCCOCCC(=O)Nc5ccccc5C(=O)Nc5ncc(C)o5)CC4)cn3)nc2n(C2CCCC2)c1=O [CPD-066, 2-(3-(2-(2-(2-(4-(6-((6-Acetyl-8-cyclopentyl-5-methyl-7-oxo-7,8-dihydropyrido[2,3-d]pyrimidin-2-yl)amino)pyridin-3-yl)piperazin-1-yl)acetamido)ethoxy)ethoxy)propanamido)-N-(5-methyloxazol-2-yl)benzamide] | D (protein percentage degradation <30%) |  | 
12 | < 30 |  | CC(=O)c1c(C)c2cnc(Nc3ccc(N4CCN(CC(=O)NCCCCCNc5ccc(C)c(C(=O)Nc6nc(C)c(C)s6)c5)CC4)cn3)nc2n(C2CCCC2)c1=O [CPD-116, 5-((5-(2-(4-(6-((6-Acetyl-8-cyclopentyl-5-methyl-7-oxo-7,8-dihydropyrido[2,3-d]pyrimidin-2-yl)amino)pyridin-3-yl)piperazin-1-yl)acetamido)pentyl)amino)-N-(4,5-dimethylthiazol-2-yl)-2-methylbenzamide] | D (protein percentage degradation <30%) |  | 
13 | 50 to 80 |  | CC(=O)c1c(C)c2cnc(Nc3ccc(N4CCN(CC(=O)NCCOCCOCCC(=O)Nc5ccccc5C(=O)Nc5cc(C)n(C)n5)CC4)cn3)nc2n(C2CCCC2)c1=O [CPD-052, 2-(3-(2-(2-(2-(4-(6-((6-Acetyl-8-cyclopentyl-5-methyl-7-oxo-7,8-dihydropyrido[2,3-d]pyrimidin-2-yl)amino)pyridin-3-yl)piperazin-1-yl)acetamido)ethoxy)ethoxy)propanamido)-N-(1,5-dimethyl-1H-pyrazol-3-yl)benzamide] | A (protein percentage degradation >=80%) |  | 
14 |  |  | CC(=O)c1c(C)c2cnc(Nc3ccc(N4CCN(C(=O)CCCCCCCCC(=O)Nc5ccccc5C(=O)Nc5nc(C)c(C)s5)CC4)cn3)nc2n(C2CCCC2)c1=O [CPD-162, 2-(10-(4-(6-((6-Acetyl-8-cyclopentyl-5-methyl-7-oxo-7,8-dihydropyrido[2,3-d]pyrimidin-2-yl)amino)pyridin-3-yl)piperazin-1-yl)-10-oxodecanamido)-N-(4,5-dimethylthiazol-2-yl)benzamide] | C (protein percentage degradation <50%, and >=30%) |  | < 30
15 | < 30 |  | CC(=O)c1c(C)c2cnc(Nc3ccc(N4CCN(CC(=O)NCCOCCOCCC(=O)Nc5ccccc5C(=O)Nc5nnc(C)s5)CC4)cn3)nc2n(C2CCCC2)c1=O [CPD-367, 2-(3-(2-(2-(2-(4-(6-((6-Acetyl-8-cyclopentyl-5-methyl-7-oxo-7,8-dihydropyrido[2,3-d]pyrimidin-2-yl)amino)pyridin-3-yl)piperazin-1-yl)acetamido)ethoxy)ethoxy)propanamido)-N-(5-methyl-1,3,4-thiadiazol-2-yl)benzamide] | D (protein percentage degradation <30%) |  | 
16 |  |  | CC(=O)c1c(C)c2cnc(Nc3ccc(N4CCN(C(=O)CCCCCCCNc5cccc(C(=O)Nc6nc(C)c(C)s6)c5C)CC4)cn3)nc2n(C2CCCC2)c1=O [CPD-125, 3-((8-(4-(6-((6-Acetyl-8-cyclopentyl-5-methyl-7-oxo-7,8-dihydropyrido[2,3-d]pyrimidin-2-yl)amino)pyridin-3-yl)piperazin-1-yl)-8-oxooctyl)amino)-N-(4,5-dimethylthiazol-2-yl)-2-methylbenzamide] | D (protein percentage degradation <30%) |  | < 30
